Data as given in article PMC10924921, “Mi-2β promotes immune evasion in melanoma by activating EZH2 methylation” (Nature Communications, 2024).

Tests used:
[1] = test system: Cxcl9 and Cxcl10 mRNA in B16F10 cells; experiment: RT-qPCR of Mi-2β target genes in treated cells; type: cell-based, mouse
Protocol: Z36-MP5 was chosen for further validation and experimental therapeutics in vivo. […] To investigate its cellular inhibitory activity, B16F10 cells were treated with Z36-MP5 at concentrations ranging from 5 to 100 µM, and the activation of Mi-2β target genes measured by RT-qPCR. […] In addition, the pharmacokinetic properties of Z36-MP5 in Sprague-Dawley rats with administration of intraperitoneal injection dose of 1.0 mg/kg. […] To exclude any effects on the host cells, we implanted Mi-2β-null melanoma cells into C57BL6 mice and then treated the mice with Z36-MP5 accompanied by anti-PD-1 therapy.
The total RNA was extracted with QIAGEN RNeasy kit […] for cDNA synthesis with SuperScript II Reverse Transcriptase (Invitrogen). In total, 40 ng cDNA was used for quantitative real-time PCR amplification by TaqMan Gene Expression Master Mix (Thermo Fisher Scientific). The relative transcript levels were normalized with GAPDH expression. The data were calculated with the comparative CT method. Primers for RT-qPCR assays are shown in Supplementary Data 3.

[2] = test system: tumor-infiltrating lymphocytes in B16F10 graft; experiment: Flow cytometry of tumor-infiltrating lymphocytes, B16F10 graft; type: in vivo, C57BL/6 mice
Protocol: Tumors were minced with scissors, and then digested with the digestion buffer (RPMI 1640 medium, 5% FBS, 1% penicillin-streptomycin, 25 mM HEPES, and 300 U collagenase (Sigma C0130)) on a shaker at 37 °C for 2 hours. Single cells were prepared through a 70 μm cell strainer. Erythrocytes were removed by incubation in red blood cell lysis buffer (R7757, Sigma) at room temperature for 5 min. The cells were prepared in PBS (with concentration of ~2 × 10^7) for studies.
The single-cell suspension were fixed with 2% paraformaldehyde solution (J19943K2, Thermo Scientific). CD45 + T cells were selected from single-cell suspension (about 2 × 10^7 cells digest from […] tumor tissue) by flow cytometry with the follow antibodies (anti-mouse CD45; BD pharmingen, 561875). And then the cells were stained anti-mouse CD3e PE (145-2C11, BD pharmingen, 553063), anti-mouse CD4 FITC (RM4-5, BD pharmingen, 553046), anti-mouse CD4 PE/Cy7 (GK1.5, BioLegend, 100421), anti-mouse CD8 FITC (53-6.7, BD pharmingen, 553031), anti-mouse CD8a APC/Cy7 (53-6.7, BioLegend 100713), anti-mouse IFN-γ PE (XMG1.2, eBioscience, 12731181), anti-mouse CD69 PE (H1.2F3, Biolegend, 104508), anti-mouse CD25 Alexa Fluor 488 (PC61.5, eBioscience, 53025182), anti-mouse CD107a-V450 (1D4B, BD, 560648), anti-human/mouse granzyme B FITC (GB11, BioLegend, 515403). […]

[3] = test system: tumor-infiltrating lymphocytes in BRafV600E/Ptennull melanoma; experiment: Flow cytometry of tumor-infiltrating lymphocytes, genetically engineered model; type: in vivo, mouse
Protocol: Mi-2β^lox/lox mice were generated and generously provide by Dr. Georgopoulos lab (Massachusetts General Hospital at Harvard Medical School)[31]. Tyr::CreER;BRaf^CA;Pten^lox/lox mice were purchased from Jackson laboratories (Stock No: 013590). All strains of mice were on the background of C57BL/6J background. Gene activation and silencing were induced with intraperitoneal (i.p.) administration of 100 µL/mouse/day tamoxifen (20 mg/mL) for constant 5 days. […] Tumor growth was then monitored each the other day. […] When the following conditions occur, the mouse is regarded as dead and euthanized, including weight loss greater than 15%; significant abdominal distension, especially if it begins to compromise respiratory ability of animal; hunched posture; failure to eat or drink; absence of (or abnormal) feces or urine output; reluctance to move or abnormal gait; Discharges or hemorrhage. Abnormal behavior or vocalizations and tumor size exceeded 1 cm^3. All animal experiments were done according to protocols approved by the ethics committee review board of Boston University and in accordance with the guidelines set forth by the US National Institutes of Health and The ethics committee review board of The 2nd Hospital and School of Medicine, Zhejiang University. […]

[4] = target: recombinant purified human Mi-2β protein (Homo sapiens, UniProt Q14839); experiment: FRET-based nucleosome repositioning assay (EpiDyne-FRET); conditions: for IC50: IC50 against Mi-2β
recombinant purified human Mi-2β protein, sequence (Q14839 whole entry): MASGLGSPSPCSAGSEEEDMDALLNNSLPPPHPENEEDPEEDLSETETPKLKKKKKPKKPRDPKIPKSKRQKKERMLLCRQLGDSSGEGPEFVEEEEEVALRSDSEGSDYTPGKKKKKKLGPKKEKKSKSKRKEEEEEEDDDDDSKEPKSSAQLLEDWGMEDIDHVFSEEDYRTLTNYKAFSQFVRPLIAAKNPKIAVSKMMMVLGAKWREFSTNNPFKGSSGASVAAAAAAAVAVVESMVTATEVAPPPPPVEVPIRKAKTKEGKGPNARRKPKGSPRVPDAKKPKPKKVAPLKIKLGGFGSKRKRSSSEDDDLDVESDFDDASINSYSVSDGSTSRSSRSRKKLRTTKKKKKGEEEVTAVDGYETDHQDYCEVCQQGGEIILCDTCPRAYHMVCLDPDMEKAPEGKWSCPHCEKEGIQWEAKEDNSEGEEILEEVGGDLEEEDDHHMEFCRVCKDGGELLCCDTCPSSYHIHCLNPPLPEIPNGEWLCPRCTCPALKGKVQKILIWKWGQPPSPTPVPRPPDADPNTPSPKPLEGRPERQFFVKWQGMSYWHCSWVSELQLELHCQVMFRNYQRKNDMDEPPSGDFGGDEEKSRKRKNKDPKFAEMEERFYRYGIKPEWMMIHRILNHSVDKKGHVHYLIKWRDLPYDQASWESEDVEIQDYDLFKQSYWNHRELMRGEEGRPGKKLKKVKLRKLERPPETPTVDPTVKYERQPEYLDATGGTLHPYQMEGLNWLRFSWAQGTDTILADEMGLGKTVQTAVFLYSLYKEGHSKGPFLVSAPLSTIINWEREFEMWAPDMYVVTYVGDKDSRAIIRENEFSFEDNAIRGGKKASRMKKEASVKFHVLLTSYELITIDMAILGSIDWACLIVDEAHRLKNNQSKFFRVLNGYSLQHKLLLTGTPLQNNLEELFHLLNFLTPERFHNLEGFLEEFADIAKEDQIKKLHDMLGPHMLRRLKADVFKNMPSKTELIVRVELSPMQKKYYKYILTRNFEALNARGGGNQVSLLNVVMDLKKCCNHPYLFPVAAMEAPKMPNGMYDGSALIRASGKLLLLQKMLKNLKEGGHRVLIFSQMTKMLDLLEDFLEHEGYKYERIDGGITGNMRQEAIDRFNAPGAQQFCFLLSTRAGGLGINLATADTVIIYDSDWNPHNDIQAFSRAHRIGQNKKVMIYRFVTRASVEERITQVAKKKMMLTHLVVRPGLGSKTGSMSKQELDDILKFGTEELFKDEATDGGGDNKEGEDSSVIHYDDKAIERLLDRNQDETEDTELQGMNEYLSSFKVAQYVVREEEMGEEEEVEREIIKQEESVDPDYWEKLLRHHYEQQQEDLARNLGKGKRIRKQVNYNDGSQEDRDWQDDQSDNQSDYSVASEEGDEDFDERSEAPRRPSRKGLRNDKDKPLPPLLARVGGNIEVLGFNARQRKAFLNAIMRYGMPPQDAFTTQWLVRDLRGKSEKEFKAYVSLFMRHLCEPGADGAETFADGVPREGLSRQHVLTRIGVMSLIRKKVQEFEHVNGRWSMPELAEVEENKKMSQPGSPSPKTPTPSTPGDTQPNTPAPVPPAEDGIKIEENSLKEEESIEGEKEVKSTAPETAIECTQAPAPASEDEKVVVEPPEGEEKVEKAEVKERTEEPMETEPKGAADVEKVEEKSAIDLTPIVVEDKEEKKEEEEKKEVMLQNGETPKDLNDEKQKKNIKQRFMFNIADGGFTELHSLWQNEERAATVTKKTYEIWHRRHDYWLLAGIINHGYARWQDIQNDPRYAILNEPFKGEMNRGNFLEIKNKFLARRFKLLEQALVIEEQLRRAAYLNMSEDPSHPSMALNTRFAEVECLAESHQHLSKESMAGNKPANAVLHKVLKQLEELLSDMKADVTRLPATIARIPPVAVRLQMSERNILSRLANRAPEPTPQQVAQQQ

Cn1c(=O)[nH]c2ccc(-c3cccc(C(=O)NC4CCn5ccnc5C4)c3)cc21 (centres unmarked) [Z36-MP5]
expressions of Mi-2β target genes Cxcl9 and Cxcl10 ([1]; 5 μM to 100 μM): substantial increases
Mi-2β target gene expression (Cxcl9, Cxcl10 mRNA) ([1]; 25 µM, 24 h): induced Mi-2β target gene expression including Cxcl9 and Cxcl10
CD8+ T-cell TILs in graft melanomas [2]: moderate increase
GZMB expression and activation markers CD69, IFN-γ, CD25, CD107 in tumor-infiltrating CD8+ T cells [2]: upregulation
CD4+ T-cell and Treg populations [3]: not affected
CD8+ T-cell population [3]: moderately induced
inhibition of Mi-2β ATPase ([4]; 1 µM): completely inhibits
IC50 ([4]; ATP 10 μM): 79 ± 13 nM
IC50 ([4]; ATP 30 μM): 198 ± 33 nM
IC50 ([4]; ATP 100 μM): 576 ± 86 nM
IC50 ([4]; ATP 300 μM): 1660 ± 358 nM
IC50 ([4]; Mi-2β chromatin modulatory activity, n = 3): 82 ± 13 nM
mode of inhibition ([4]; IC50 increased with ATP 10–300 µM): ATP-competitive inhibitor
potency relative to the original compound Z36 ([4]; ratio of IC50 values): ~ 85 fold
